From US10525058B2, “Urea derivative or pharmacologically acceptable salt thereof” (KYORIN PHARMACEUTICAL CO., LTD., priority 2015, dated 2020)

Target: T1, human FPRL1 (Homo sapiens, UniProt P25090)
T1 construct: expressed in transfected cells; host or cells: HEK293 (JCRB9068, NIBIO), transient co-transfection with pCMV-script vectors
T1 sequence (P25090 1-351): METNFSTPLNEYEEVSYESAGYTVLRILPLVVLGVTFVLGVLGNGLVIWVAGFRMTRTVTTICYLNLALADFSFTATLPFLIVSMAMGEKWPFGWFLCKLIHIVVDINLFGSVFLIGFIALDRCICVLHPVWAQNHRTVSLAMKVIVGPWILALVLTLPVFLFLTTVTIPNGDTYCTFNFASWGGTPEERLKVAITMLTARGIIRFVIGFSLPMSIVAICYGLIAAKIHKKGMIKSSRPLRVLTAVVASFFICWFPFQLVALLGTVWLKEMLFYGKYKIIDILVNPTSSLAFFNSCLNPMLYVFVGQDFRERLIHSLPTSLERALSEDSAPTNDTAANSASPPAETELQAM
Experiment: Measurement test of agonist activity on human FPRL1 (calcium mobilization in HEK293 cells transfected with human FPRL1 and Gα15)
Assay type: cell-based
Conditions: Fluo-4 NW, molar concentration giving 50% maximum activation, read-out: Efficacy EC50
Text: Measurement test of agonist activity on human FPRL1
(1-1) Construction of Human FPRL1 Expression Vector
Human FPRL (SEQ ID NO: 3) was amplified in a PCR reaction from cDNA derived from a monocytic leukemia cell line THP-1 (TIB-202, ATCC) as a template using a forward primer shown in SEQ ID NO: 1, a reverse primer shown in SEQ ID NO: 2, and KOD-plus-ver. 2 (KOD-211, TOYOBO CO., LTD.). […] 2 (LGK-201, TOYOBO CO., LTD.). The ligation product was transformed into DH5α (DNA-901, TOYOBO CO., LTD.), cultured on a 100 μg/mL kanamycin-containing LB medium, and purified with HiSpeed Plasmid Maxi Kit (12662, QIAGEN).
(1-2) Construction of Human Gα15 Expression Vector
2. The amplified PCR product and pCMV-script vector were digested with Hind III and XhoI, and the resultant digest was ligated with Ligation high ver. 2. The ligation product was transformed into DH5α, cultured on a 100 μg/mL kanamycin-containing LB medium, and purified with HiSpeed Plasmid Maxi Kit.
(2-1) Method for Culturing and Subculturing HEK293
HEK293 (JCRB9068, NIBIO) was cultured in an incubator at 5% CO2 and 37° C. using DMEM (11885-092, GIBCO) containing 10% FBS and 1cPenicillin-Streptomycin (15140-122, GIBCO).
(2-2) Introduction of Human FPRL1 and Gal5 Expression Vectors
The cells were inoculated in a Collagen Type 1 coated 6-well plate (4810-010, IWAKI) to 5×10^5 cells/2.5 mL/well and cultured overnight. On the next day, human FPRL1 and Gα15 expression vectors were introduced using Lipofectamine 2000 transfection reagent (11668-019, Life technologies). First, the human FPRL1 and Gal5 expression vectors were diluted with Opti-MEM I Reduced Serum Medium (31985-070, GIBCO) to 2 μg/250 μL/well and Lipofectamine 2000 transfection reagent was diluted with Opti-MEM I Reduced Serum Medium to be 4 μL/250 μL/well. The vectors and reagent were softly diffused, and incubated at room temperature for 5 minutes. The vector solution was mixed with Lipofectamine 2000 transfection reagent in equal amounts. In order to form a complex of the vectors and Lipofectamine 2000 transfection reagent, the mixture was incubated at room temperature for 20 minutes, and added at 500 μL/well to the medium of inoculated cells. The treated cells were cultured for 24 hours, inoculated in Poly-D-Lysine coated 96-well plate (356640, BD Biosciences) at a cell density of 7×10^4 cells/100 μL/well, and cultured for another 24 hours. The resultant cells were used in a measurement test of calcium mobilization in the cells.
(3) Evaluation of Agonist Activity on Human FPRL1 (Test of Calcium Mobilization in Cell)
An appropriate amount of each test compound was first weighed, and dissolved to 10^−2 M by addition of dimethyl sulfoxide (DMSO). […] The plate dispensed with compound solutions was set in Flexstation (Molecular Devices, LLC.) until measurement.
Subsequently, 10 mL of assay buffer and 100 μL of probenecid solution (dissolved by addition of 1 mL of assay buffer to a 250 mM stock) were sufficiently mixed and dissolved in Fluo-4 NW dye mix. The medium of cells inoculated on the previous day was removed, the dissolved Fluo-4 NW dye mix was added in an amount of 90 μL/well, and a reaction was caused in the dark at 37° C. for 45 minutes. The cells after the reaction and chips for addition of the compound were set in Flexstation, and variation in fluorescence intensity over time after addition of the compound was measured [amount of added compound=10 μL (final concentration: 10^−5 M to 10^−12 M), excitation wavelength: 485 nm, measured wavelength: 525 nm, 1.5 sec×54 read]. A value was calculated by subtracting a base value during addition of DMSO from the maximum value of relative fluorescence unit, and analyzed. All the measurement data were analyzed with Prism 4 that was a data analysis tool.

EC50 [nM]	Structure (SMILES)
0.25	COc1ccc([C@@H]2COC[C@@H]2NC(=O)Nc2ccc(Cl)cc2)cc1 (racemic) [Example 1-1, (±)-cis-1-(4-Chlorophenyl)-3-[4-(4-methoxyphenyl)tetrahydrofuran-3-yl]urea]
12	COc1ccc([C@@H]2COC[C@@H]2NC(=O)Nc2ccc(F)c(F)c2)cc1 (racemic) [Example 1-5, (±)-cis-1-(3,4-difluorophenyl)-3-[4-(4-methoxyphenyl)tetrahydrofuran-3-yl]urea]
10	COc1ccc([C@@H]2COC[C@@H]2NC(=O)Nc2ccc(C#N)cc2)cc1 (racemic) [Example 1-6, (±)-cis-1-(4-cyanophenyl)-3-[4-(4-methoxyphenyl)-tetrahydrofuran-3-yl]urea]
5.2	COc1ccc([C@@H]2COC[C@@H]2NC(=O)Nc2ccc(Cl)s2)cc1 (racemic) [Example 1-7, (±)-cis-1-(5-chlorothiophen-2-yl)-3-[4-(4-methoxyphenyl)-tetrahydrofuran-3-yl]urea]
3.78	COc1cc(F)c([C@@H]2COC[C@@H]2NC(=O)Nc2ccc(F)cc2)c(F)c1 (racemic) [Example 1-8, (±)-cis-1-[4-(2,6-difluoro-4-methoxyphenyl)-tetrahydrofuran-3-yl]-3-(4-fluorophenyl)urea]
2.3	COc1ccc([C@@H]2COC[C@H]2NC(=O)Nc2ccc(Cl)cc2)cc1 (racemic) [Example 1-9, (±)-trans-1-(4-chlorophenyl)-3-[4-(4-methoxyphenyl)tetrahydrofuran-3-yl]urea]
0.29	COc1ccc(C2CS(=O)(=O)CC2NC(=O)Nc2ccc(Cl)cc2)cc1 (racemic) [Example 1-10, (±)-1-(4-chlorophenyl)-3-[4-(4-methoxyphenyl)-1,1-dioxideterrahydrothiophen-3-yl]urea]
0.11	COc1ccc([C@@H]2CCNC(=O)C2NC(=O)Nc2ccc(Cl)cc2)cc1 (mixture of isomers) [Example 1-11, (±)-trans-1-(4-chlorophenyl)-3-[4-(4-methoxyphenyl)-2-oxopiperidin-3-yl]urea]
14	O=C(Nc1ccc(F)cc1)NC1COC[C@H]1c1ccc(Cl)cc1 (mixture of isomers) [Example 5-1, (±)-cis-1-[4-(4-Chlorophenyl)tetrahydrofuran-3-yl]-3-(4-fluorophenyl)urea]
2.6	COc1ccc(C2COC(=O)N2NC(=O)Nc2ccc(Cl)cc2)cc1 (racemic) [Example 5-4, (±)-1-(4-chlorophenyl)-3-[4-(4-methoxyphenyl)-2-oxooxazolidin-3-yl]urea]
5.6	COc1ccc([C@@H]2CC(=O)N[C@H]2NC(=O)Nc2ccc(F)cc2)cc1 (racemic) [Example 6-1, (±)-trans-1-(4-Fluorophenyl)-3-[3-(4-methoxyphenyl)-5-oxopyrrolidin-2-yl]urea]
0.29	COc1ccc([C@@H]2CN3C(=O)CON=C3[C@H]2NC(=O)Nc2ccc(F)cc2)cc1 (relative stereo) [Example 10-1, 1-(4-Fluorophenyl)-3-[(7R*,8S*)-7-(4-methoxyphenyl)-4-oxo-4,6,7,8-tetrahydro-3H-pyrrolo[2,1-c][1,2,4]oxadiazin-8-yl]urea]
0.25	COc1cc(F)c([C@@H]2Cn3ccnc3[C@H]2NC(=O)Nc2ccc(F)cc2)c(F)c1 (single isomer, unassigned) [Example 7-2, (−)-1-[(6R*,7S*)-6-(2,6-difluoro-4-methoxyphenyl)-6,7-dihydro-5H-pyrrolo[1,2-a]imidazol-7-yl]-3-(4-fluorophenyl)urea]
0.6	COc1ccc([C@@H]2Cn3nnnc3[C@H]2NC(=O)Nc2ccc(F)cc2)cc1 (single isomer, unassigned) [Example 7-3, (−)-1-(4-fluorophenyl)-3-[(6R*,7S*)-6-(4-methoxyphenyl)-6,7-dihydro-5H-pyrrolo[1,2-d]tetrazol-7-yl]urea]
0.36	COc1cc(F)c([C@@H]2Cn3nnnc3[C@H]2NC(=O)Nc2ccc(F)cc2)c(F)c1 (single isomer, unassigned) [Example 7-4, (−)-1-[(6R*,7S*)-6-(2,6-difluoro-4-methoxyphenyl)-6,7-dihydro-5H-pyrrolo[1,2-d]tetrazol-7-yl]-3-(4-fluorophenyl)urea]
2.5	O=C(Nc1ccc(F)cc1)N[C@@H]1c2nnnn2C[C@H]1c1cc2c(cc1F)OCC2 (single isomer, unassigned) [Example 7-5, (−)-1-[(6R*,7S*)-6-(6-fluoro-2,3-dihydrobenzofuran-5-yl)-6,7-dihydro-5H-pyrrolo[1,2-d]tetrazol-7-yl]-3-(4-fluorophenyl)urea]
0.97	COc1cc(F)c([C@@H]2CN3CCCN=C3[C@H]2NC(=O)Nc2ccc(F)cc2)c(F)c1 (single isomer, unassigned) [Example 7-6, (−)-1-[(7R*,8S*)-7-(2,6-difluoro-4-methoxyphenyl)-2,3,4,6,7,8-hexahydropyrrolo[1,2-a]pyrimidin-8-yl]-3-(4-fluorophenyl)urea]
0.03	COc1cc(F)c([C@@H]2CN3C(=O)CON=C3[C@H]2NC(=O)Nc2ccc(F)cc2)c(F)c1 (single isomer, unassigned) [Example 8-1, (−)-1-[(7R*,8S*)-7-(2,6-Difluoro-4-methoxyphenyl)-4-oxo-4,6,7,8-tetrahydro-3H-pyrrolo[2,1-c][1,2,4]oxadiazin-8-yl]-3-(4-fluorophenyl)urea]
0.03	COc1cc(F)c([C@@H]2CN3C(=O)CCN=C3[C@H]2NC(=O)Nc2ccc(F)cc2)c(F)c1 (single isomer, unassigned) [Example 9-1, (−)-1-[(7R*,8S*)-7-(2,6-Difluoro-4-methoxyphenyl)-4-oxo-2,3,4,6,7,8-hexahydropyrrolo[1,2-a]pyrimidin-8-yl]-3-(4-fluorophenyl)urea]
0.05	COc1cc(F)c([C@@H]2Cn3c(C)nnc3C2NC(=O)Nc2ccc(F)cc2)c(F)c1 (single isomer, unassigned; (-)) [Example 7-1, (−)-1-[(6R*,7S*)-6-(2,6-Difluoro-4-methoxyphenyl)-3-methyl-6,7-dihydro-5H-pyrrolo[2,1-c][1,2,4]triazol-7-yl]-3-(4-fluorophenyl)urea]
